Measurements from patent publication US6620828B2, “Thiazole compounds and pharmaceutical compositions for inhibiting protein kinases and methods for their use” (Agouron Pharmaceuticals, Inc., priority 1999, dated 2003).

Legend:
Assay type in all cases: biochemical
CDK4/Cyclin D3 complex = target: T1, CDK4/Cyclin D3 complex (Homo sapiens, UniProt P11802); assay: CDK4/Cyclin D assay; details: Table 2; for inhibition at 100 µM: at 100 (printed 100 or 100 μM)
T1 construct: made in house; host or cells: insect cells co-infected with baculovirus vectors
Procedure: CDK4/Cyclin D Construct for Assay: A complex of human CDK4 and cyclin D3, or a complex of cyclin DI and a fusion protein of human CDK4 and glutathione-S-transferase (GST-CDK4), was purified using traditional biochemical chromatographic techniques from insect cells that had been co-infected with the corresponding baculovirus expression vectors.
(§1) CDK2/Cyclin A and CDK4/Cyclin D Assays
(§2) Cyclin-dependent kinase activity was measured by quantifying the enzyme-catalyzed, time-dependent incorporation of radioactive phosphate from [^32P]ATP into a recombinant fragment of the retinoblastoma protein. Unless noted otherwise, assays were performed in 96-well plates in a total volume of 50 μL, in the presence of 10 mM HEPES (N-[2-hydroxyethyl]piperazine-N′-[2-ethanesulfonic acid]) (pH 7.4), 10 mM MgCl2, 25 μM adenosine triphosphate (ATP), 1 mg/mL ovalbumin, 5 μg/mL leupeptin, 1 mM dithiothreitol, 10 mM β-glycerophosphate, 0.1 mM sodium vanadate, 1 mM sodium fluoride, 2.5 mM ethylene glycol-bis(β-aminoethyl ether)-N,N,N′N′-tetraacetic acid (EGTA), 2% (v/v) dimethylsulfoxide, and 0.03-0.2 μCi [^32P]ATP. The substrate (0.3-0.5 μg) was purified recombinant retinoblastoma protein fragment (Rb) (residues 386-928 of the native retinoblastoma protein; 62.3 kDa, containing the majority of the phosphorylation sites found in the native 106-kDa protein, as well as a tag of six histidine residues for ease of purification). Reactions were initiated with CDK2 (150 nM CDK2/Cyclin A complex) or CDK4 (50 nM CDK4/Cyclin D3 complex), incubated at 30° C., and terminated after 20 minutes by the addition of ethylenediaminetetraacetic acid EDTA) to 250 mM. The phosphorylated substrate was then captured on a nitrocellulose membrane using a 96-well filtration manifold, and unincorporated radioactivity was removed by repeated washing with 0.85% phosphoric acid. Radioactivity was quantified by exposing the dried nitrocellulose membranes to a phosphorimager. Apparent Ki values were measured by assaying enzyme activity in the presence of different compound concentrations and subtracting the background radioactivity measured in the absence of enzyme. The kinetic parameters (kcat, Km for ATP) were measured for each enzyme under the usual assay conditions by determining the dependence of initial rates on ATP concentration. The data were fit to an equation for competitive inhibition using Kaleidagraph (Synergy Software), or were fit to an equation for competitive tight-binding inhibition using the software KineTic (BioKin, Ltd.). Measured Ki values for known inhibitors against CDK4 and CDK2 agreed with published IC50 values. The specific activity of CDK4 was the same whether complexed to full-length cyclin D3 or the truncated Cyclin D3 construct; both complexes also yielded very similar Ki values for selected inhibitors.

FL-CHK1 = target: T2, FL-CHK1 (Homo sapiens, UniProt O14757); assay: CHK1 assay; parameters: CHK1^b: unit not given here; details: for CHK1^b: Table A combinatorial examples, footnote b not given
T2 construct: C-terminally His-tagged full-length human CHK1 (FL-CHK1); 6xHis (C); made in house; host or cells: baculovirus/insect cells
T2 sequence (O14757 1-476): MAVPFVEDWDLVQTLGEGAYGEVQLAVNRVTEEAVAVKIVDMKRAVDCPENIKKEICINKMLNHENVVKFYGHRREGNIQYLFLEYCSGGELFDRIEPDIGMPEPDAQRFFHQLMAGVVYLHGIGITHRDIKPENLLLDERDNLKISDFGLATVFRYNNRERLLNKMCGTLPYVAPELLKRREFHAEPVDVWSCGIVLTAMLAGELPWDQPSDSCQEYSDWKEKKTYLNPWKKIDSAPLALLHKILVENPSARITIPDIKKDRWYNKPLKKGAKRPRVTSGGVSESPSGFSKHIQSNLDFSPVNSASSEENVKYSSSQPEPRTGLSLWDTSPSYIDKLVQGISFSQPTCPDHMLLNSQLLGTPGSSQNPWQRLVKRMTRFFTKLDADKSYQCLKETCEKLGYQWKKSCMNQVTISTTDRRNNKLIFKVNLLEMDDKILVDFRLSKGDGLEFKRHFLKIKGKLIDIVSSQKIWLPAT
From the text: CHK-1 Construct for Assay: C-terminally His-tagged full-length human CHK1 (FL-CHK1) was expressed using the baculovirus/insect cell system. It contains 6 histidine residues (6×His-tag) at the C-terminus of the 476 amino acid human CHK1. The protein was purified by conventional chromatographic techniques.
The production of ADP from ATP that accompanies phosphoryl transfer to the synthetic substrate peptide Syntide-2 ([…]) was coupled to oxidation of NADH using phosphoenolpyruvate (PEP) through the actions of pyruvate kinase (PK) and lactic dehydrogenase (LDH). The oxidation of NADH was monitored by following the decrease of absorbance at 340 nm (ε340=6.22 cm^−1 mM^−1) using a HP8452 spectrophotometer. Typical reaction solutions contained: […]; 0.15 mM NADH; 28 units of LDH/ml; 16 units of PK/ml; 3 mM DTT; 0.125 mM Syntide-2; 0.15 mM ATP; 25 mM MgCl2 in 50 mM TRIS, pH 7.5; and 400 mM NaCl. Assays were initiated with 10 nM of FL-CHK1. Ki values were determined by measuring initial enzyme activity in the presence of varying concentrations of test compounds. The data were analyzed using Enzyme Kinetic and Kaleidagraph software.

[1] = target: T3, phosphorylated VEGF-R2Δ50 (FLVK-P) (Homo sapiens, UniProt P35968, DEL940-989/E990V); assay: VEGF-R2 coupled spectrophotometric (FLVK-P) assay; details: Table 3; at 1 μM
T3 construct: VEGF-R2Δ50 contains residues 806-939 and 990-1171; made in house; host or cells: baculovirus/insect cells
From the text: VEGF-R2 Construct for Assay: This construct determines the ability of a test compound to inhibit tyrosine kinase activity. A construct (VEGF-R2Δ50) of the cytosolic domain of human vascular endothelial growth factor receptor 2 (VEGF-R2) lacking the 50 central residues of the 68 residues of the kinase insert domain was expressed in a baculovirus/insect cell system. Of the 1356 residues of full-length VEGF-R2, VEGF-R2Δ50 contains residues 806-939 and 990-1171, and also one point mutation (E990V) within the kinase insert domain relative to wild-type VEGF-R2. Autophosphorylation of the purified construct was performed by incubation of the enzyme at a concentration of 4 μM in the presence of 3 mM ATP and 40 mM MgCl2 in 100 mM Hepes, pH 7.5, containing 5% glycerol and 5 mM DTT, at 4° C. for 2 h. […] See Parast et al., Biochemistry, 37, 16788-16801 (1998).
Coupled Spectrophotometric (FLVK-P) Assay
The production of ADP from ATP that accompanies phosphoryl transfer was coupled to oxidation of NADH using phosphoenolpyruvate (PEP) and a system having pyruvate kinase (PK) and lactic dehydrogenase (LDH). The oxidation of NADH was monitored by following the decrease of absorbance at 340 nm (e340=6.22 cm^−1 mM^−1) using a Beckman DU 650 spectrophotometer. Assay conditions for phosphorylated VEGF-R2Δ50 (indicated as FLVK-P in the tables below) were the following: 1 mM PEP; 250 μM NADH; 50 units of LDH/mL; 20 units of PK/mL; 5 mM DTT; 5.1 mM poly(E4Y1); 1 mM ATP; and 25 mM MgCl2 in 200 mM Hepes, pH 7.5. Assay conditions for unphosphorylated VEGF-R2Δ50 (indicated as FLVK in the tables) were the following: 1 mM PEP; 250 μM NADH; 50 units of LDH/mL; 20 units of PK/mL; 5 mM DTT; 20 mM poly(E4Y1); 3 mM ATP; and 60 mM MgCl2 and 2 mM MnCl2 in 200 mM Hepes, pH 7.5. Assays were initiated with 5 to 40 nM of enzyme. Ki values were determined by measuring enzyme activity in the presence of varying concentrations of test compounds. The data were analyzed using Enzyme Kinetic and Kaleidagraph software.

CDK2/Cyclin A complex = CDK2/Cyclin A complex (Homo sapiens, UniProt P24941); assay: CDK2/Cyclin A assay; parameters: CDK2^c: concentration or dose not given beside the values; details: for CDK2^c: Table A combinatorial examples, footnote c not given
From the text: CDK2/Cyclin A Construct for Assay: CDK2 was purified using published methodology (Rosenblatt et al., J. Mol. Biol., 230, 1317-1319 (1993)) from insect cells that had been infected with a baculovirus expression vector. Cyclin A was purified from E. coli cells expressing full-length recombinant cyclin A, and a truncated cyclin A construct was generated by limited proteolysis and purified as described previously (Jeffrey et al., Nature, 376, 313-320 (Jul. 27, 1995)).
as §1, §2

T1 sequence (P11802 whole entry): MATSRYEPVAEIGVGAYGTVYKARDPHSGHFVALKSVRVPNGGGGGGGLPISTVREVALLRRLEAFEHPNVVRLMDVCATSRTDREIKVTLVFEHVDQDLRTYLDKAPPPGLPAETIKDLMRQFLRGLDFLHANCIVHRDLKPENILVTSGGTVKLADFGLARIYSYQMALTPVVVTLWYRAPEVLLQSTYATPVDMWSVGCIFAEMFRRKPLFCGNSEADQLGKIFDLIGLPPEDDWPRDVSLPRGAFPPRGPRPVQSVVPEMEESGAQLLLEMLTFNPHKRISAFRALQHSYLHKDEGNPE
T1 sequence (P30281 whole entry partner): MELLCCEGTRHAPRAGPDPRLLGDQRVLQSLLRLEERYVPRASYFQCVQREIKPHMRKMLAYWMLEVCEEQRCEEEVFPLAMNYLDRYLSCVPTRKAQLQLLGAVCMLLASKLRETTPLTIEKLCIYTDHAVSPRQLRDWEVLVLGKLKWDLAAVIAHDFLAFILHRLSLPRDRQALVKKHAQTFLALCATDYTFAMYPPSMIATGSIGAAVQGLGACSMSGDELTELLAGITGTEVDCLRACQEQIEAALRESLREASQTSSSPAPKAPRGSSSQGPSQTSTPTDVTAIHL
T3 sequence (P35968 with tags, fused parts or gaps DEL940-989/E990V limits assumed): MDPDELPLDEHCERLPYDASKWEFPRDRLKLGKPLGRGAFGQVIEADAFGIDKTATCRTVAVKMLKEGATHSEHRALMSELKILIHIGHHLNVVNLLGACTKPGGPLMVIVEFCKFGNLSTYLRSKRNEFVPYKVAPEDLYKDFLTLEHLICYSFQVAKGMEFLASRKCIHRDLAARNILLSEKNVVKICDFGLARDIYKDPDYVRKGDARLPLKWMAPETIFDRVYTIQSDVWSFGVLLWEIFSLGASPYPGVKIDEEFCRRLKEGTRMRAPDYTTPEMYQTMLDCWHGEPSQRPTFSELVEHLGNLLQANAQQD

## COc1cc(Nc2nc(N)c(C3=NC(C(C)OCc4ccccc4)CO3)s2)cc(OC)c1OC [I(4), 5-{(4R)-[(1R)-Benzyloxy-ethyl]-4,5-dihydro-oxazol-2-yl}-N^2-(3,4,5-trimethoxyl-phenyl)-thiazole-2,4-diamine]
CDK4/Cyclin D3 complex
  inhibition at 100 µM: < 0%

## Nc1nc(Nc2ccc(S(N)(=O)=O)cc2)sc1-c1nc(C(=O)O)cs1 [N(1)]
FL-CHK1; Table 3, at 25 μM
  inhibition at 25 µM: < 0%
[1]
  inhibition at 1 µM: 24%
CDK2/Cyclin A complex; Table 3
  Ki: 2.7 µM

## COc1cc(Nc2nc(N)c(C3=N[C@H](Cc4ccccc4)CO3)s2)cc(OC)c1OC [I(2), R-5-(4-Benzyl-4,5-dihydro-oxazol-2-yl)-N^2-(3,4,5-trimethoxyl-phenyl)-thiazole-2,4-diamine]
CDK4/Cyclin D3 complex
  inhibition at 100 µM: < 0%

## Nc1nc(Nc2ccc(S(N)(=O)=O)cc2)sc1-c1nc(O)c(-c2ccc(O)cc2)s1 [H(2), 4-[4′-Amino-4-hydroxy-5-(4-hydroxy-phenyl)-[2,5′]bithiazolyl-2′-yl-amino]-benzenesulfonamide]
CDK4/Cyclin D3 complex
  Ki: 11 µM
CDK2/Cyclin A complex; Table 2
  Ki: 10.4 µM

## CCOC(=O)c1ccc(-c2csc(-c3sc(Nc4cc(OC)c(OC)c(OC)c4)nc3N)n2)cc1 [A(11), 4-[4′-Amino-2′-(3,4,5-trimethoxy-phenylamino)-[2,5′]bithiazolyl-4-yl]-benzoic acid ethyl ester]
CDK4/Cyclin D3 complex
  inhibition at 100 µM: 33%

## COc1cc(Nc2nc(N)c(-c3cccc(Br)n3)s2)cc(OC)c1OC [G(6), 5-(6-Bromo-pyridin-2-yl)-2-N-(3,4,5-trimethoxy-phenyl)-thiazole-2,4-diamine]
CDK4/Cyclin D3 complex
  Ki: 100 µM

## COc1cc(Nc2nc(N)c(-c3nc(-c4ccc(OC(=O)c5ccccc5)cc4)cs3)s2)cc(OC)c1OC
FL-CHK1
  CHK1^b: 22.3
CDK2/Cyclin A complex
  CDK2^c: 14.6

## COc1cc(Nc2nc(N)c(-c3nc(-c4c(Cl)c(Cl)nc(Cl)c4Cl)cs3)s2)cc(OC)c1OC
FL-CHK1
  CHK1^b: 48.8
CDK2/Cyclin A complex
  CDK2^c: 10.3

## COc1cc(Nc2nc(N)c(-c3nc(-c4ccc(Cl)c(Cl)c4)cs3)s2)cc(OC)c1OC
FL-CHK1
  CHK1^b: 12.1
CDK2/Cyclin A complex
  CDK2^c: 7.3

## COc1cc(Nc2nc(N)c(-c3nc(-c4ccc5ccccc5c4)cs3)s2)cc2c1OCCO2
FL-CHK1
  CHK1^b: 9.2
CDK2/Cyclin A complex
  CDK2^c: 11.6

## COc1cc(Nc2nc(N)c(-c3nc(-c4ccc(O)cc4)cs3)s2)cc(OC)c1OC [drawing 352]
FL-CHK1
  CHK1^b: 48.3
CDK2/Cyclin A complex
  CDK2^c: 3

## CCN(CC)c1ccc(-c2csc(-c3sc(Nc4cc(OC)c(OC)c(OC)c4)nc3N)n2)cc1
FL-CHK1
  CHK1^b: 1.3
CDK2/Cyclin A complex
  CDK2^c: 6.3

## COc1cc(Nc2nc(N)c(-c3nc(-c4ccc5c(c4)C(C)(C)CCC5(C)C)cs3)s2)cc2c1OCCO2
FL-CHK1
  CHK1^b: 22.4
CDK2/Cyclin A complex
  CDK2^c: 4.2

## COc1cc(Nc2nc(N)c(-c3nc(-c4ccc5oc6ccccc6c5c4)cs3)s2)cc2c1OCCO2
FL-CHK1
  CHK1^b: 34.1
CDK2/Cyclin A complex
  CDK2^c: 19

## COc1cc(Nc2nc(N)c(-c3nc(-c4ccc(Cl)cc4)cs3)s2)cc(OC)c1OC
FL-CHK1
  CHK1^b: 11.2
CDK2/Cyclin A complex
  CDK2^c: 0.1

## COc1ccc2nc(-c3ccccc3)cc(-c3csc(-c4sc(Nc5cc(OC)c(OC)c(OC)c5)nc4N)n3)c2c1
FL-CHK1
  CHK1^b: 21.6
CDK2/Cyclin A complex
  CDK2^c: −2.7

## COc1ccc(-c2csc(-c3sc(Nc4cc(OC)c(OC)c(OC)c4)nc3N)n2)cc1 [drawing 362]
FL-CHK1
  CHK1^b: 29.4
CDK2/Cyclin A complex
  CDK2^c: 1.7

## COc1cc(Nc2nc(N)c(-c3nc(-c4ccc(O)c(O)c4)cs3)s2)cc(OC)c1OC [drawing 325]
FL-CHK1
  CHK1^b: 47.7
CDK2/Cyclin A complex
  CDK2^c: −10.3

## CCOC(=O)c1ccccc1-c1csc(-c2sc(Nc3cc(OC)c(OC)c(OC)c3)nc2N)n1
FL-CHK1
  CHK1^b: 41.4
CDK2/Cyclin A complex
  CDK2^c: 4.4

## COc1cc(Nc2nc(N)c(-c3nc(-c4ccc(F)cc4F)cs3)s2)cc(OC)c1OC [drawing 382]
FL-CHK1
  CHK1^b: 32.5
CDK2/Cyclin A complex
  CDK2^c: −12.1

## CCc1cc2c(cc1-c1csc(-c3sc(Nc4cc(OC)c5c(c4)OCCO5)nc3N)n1)C(C)(C)CCC2(C)C
FL-CHK1
  CHK1^b: 10.4
CDK2/Cyclin A complex
  CDK2^c: 13.8

## COc1cc(Nc2nc(N)c(-c3nc(-c4cc(-c5ccccc5)no4)cs3)s2)cc(OC)c1OC
FL-CHK1
  CHK1^b: 2.7
CDK2/Cyclin A complex
  CDK2^c: 11.2

## COc1cc(Nc2nc(N)c(-c3nc(-c4ccc(F)cc4)cs3)s2)cc(OC)c1OC
FL-CHK1
  CHK1^b: 48.3
CDK2/Cyclin A complex
  CDK2^c: 35

## COc1cc(Nc2nc(N)c(-c3nc(-c4ccc(CC(=O)O)s4)cs3)s2)cc(OC)c1OC
FL-CHK1
  CHK1^b: 41.9
CDK2/Cyclin A complex
  CDK2^c: 26.7
